Source: ChEMBL document CHEMBL3751724, “Bioactive lignan derivatives from the stems of Firmiana simplex” (Bioorg Med Chem Lett, 2016)

Columns and labels:
[1] = Antineuroinflammatory activity in mouse BV2 cells assessed as inhibition of LPS-induced nitric oxide production after 24 hrs by Griess assay; assay type: functional, cell-based; settings: BV-2, 24 h
[2] = Cytotoxicity against LPS-stimulated mouse BV2 cells assessed as cell viability at 20 uM by MTT assay relative to control; assay type: cell-based, BV-2; settings: read-out: Activity

SMILES | IC50 [1] | viability at 20 µM [2]
COc1cc([C@@H]2Oc3c(OC)cc(/C=C/C=O)cc3[C@H]2CO)ccc1O | 7.07 µM | 115%
c1cc2c(cc1[C@@H]1OC[C@@H]3[C@H]1CO[C@H]3c1ccc3c(c1)OCO3)OCO2 | 26.3 µM | 126%
COc1cc(C(O)C(CO)Oc2c(OC)cc([C@@H]3Oc4c(OC)cc(/C=C/C=O)cc4[C@H]3CO)cc2OC)ccc1O (stereo partly drawn) | 15.3 µM | 129%
COc1cc([C@@H](O)[C@@H](CO)Oc2ccc(/C=C/C=O)cc2OC)ccc1O | 1.05 µM | 123%
COc1cc([C@H](O)[C@@H](CO)Oc2ccc(/C=C/C=O)cc2OC)ccc1O | 0.929 µM | 129%
COc1cc([C@H]2OC[C@H]3[C@@H]2CO[C@@H]3c2ccc(O)c(OC)c2)ccc1O | 31.1 µM | 111%
Oc1ccc([C@@H]2OC[C@H]3[C@H](c4ccc5c(c4)OCO5)OC[C@@]23O)cc1 | 35.4 µM | 109%
COc1cc(C(O)C(CO)Oc2c(OC)cc([C@@H]3OC[C@@H]4[C@H]3CO[C@H]4c3ccc(O)c(OC)c3)cc2OC)ccc1O (stereo partly drawn) | 19.3 µM | 121%
COc1cc([C@@H](O)[C@H](CO)Oc2c(OC)cc([C@@H]3OC[C@H]4[C@H](c5ccc(O)c(OC)c5)OC[C@@]34O)cc2OC)ccc1O | > 500 µM | 108%
COc1cc([C@@H]2Oc3c(OC)cc(/C=C/C=O)cc3[C@H]2CO)cc(OC)c1O | 10 µM | 120%
COc1cc(C(OC)[C@H]2CO[C@H](c3ccc(O)c(OC)c3)[C@H]2CO)ccc1O (stereo partly drawn) | 33 µM | 115%
COc1cc([C@@H]2OC[C@@H]3[C@H]2CO[C@H]3c2cc(OC)c(O)c(OC)c2)cc(OC)c1O | 27.5 µM | 110%
COc1cc([C@@H](O)[C@@H](CO)Oc2ccc(/C=C/CO)cc2OC)ccc1O (relative stereo) | 32.6 µM | 117%
COc1cc([C@@H](O)[C@@H](CO)Oc2c(OC)cc(/C=C/CO)cc2OC)ccc1O (relative stereo) | 23.5 µM | 120%
COc1cc([C@@H](O)[C@@H](CO)Oc2ccc(C=O)cc2OC)ccc1O (relative stereo) | 47.6 µM | 116%
COc1cc(/C=C/CO)ccc1O[C@H](CO)[C@@H](O)c1cc(OC)c(O)c(OC)c1 (relative stereo) | 9.14 µM | 123%
COc1cc([C@@H]2OC[C@@]3(O)[C@H](c4ccc5c(c4)OCO5)OC[C@@H]23)ccc1O (relative stereo) | > 500 µM | 108%
COc1cc([C@@H]2OC[C@@H]3[C@H]2CO[C@H]3c2ccc(O)c(OC)c2)ccc1O [(+)-PINORESINOL] | 25.1 µM | 115%
COc1cc([C@@H]2OC[C@@H]3[C@H]2CO[C@H]3c2ccc3c(c2)OCO3)ccc1O [PIPERITOL] | 32.6 µM | 113%
